Assay results taken from patent publication US20020115642A1, “Beta-lactam antibiotics” (priority 2000, published 2002).
≈ marks a conversion by molar mass, not a printed value. Where two headings read alike, the source gives them in different places.

Experiments:
E. faecalis = test: Susceptibility testing (MIC, modified NCCLS method); assay type: cell-based, Enterococcus faecalis; settings: Enterococcus faecalis, read-out: MIC
How it was run: (§1)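 Readout OD600 increase. Compounds (aqueous or DMSO stocks) serially diluted 2-fold across 20 concentrations, then inoculated with bacterial broth culture to final ~1-1.5×10^6 cells/ml; screening-adapted NCCLS microdilution.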

E. cloacae = test: as above; assay type: cell-based, Enterobacter cloacae; settings: Enterobacter cloacae, ATCC23355; E. cloacae ATCC 23355; read-out: MIC
How it was run: as §1

K. pneumoniae = test: as above; assay type: cell-based, Klebsiella pneumoniae; settings: Klebsiella pneumoniae, read-out: MIC
How it was run: as §1

P. aeruginosa = test: Susceptibility testing (MIC, modified NCCLS method); assay type: cell-based, Pseudomonas aeruginosa; settings: Pseudomonas aeruginosa, read-out: MIC
Description: The NCCLS (National Committee for Clinical Laboratory Standards) method to determine MIC's of antimicrobial compounds was modified for high-throughput screening. All stocks of tested compounds were prepared in either water or in dimethylsulfoxide (DMSO), depending on the solubility. […] Briefly 20 2-fold serial dilutions of testing compounds from the highest concentration were made in a 384-well microtiter plate. Each well was inoculated with testing bacteria in broth to a final concentration of approximately 1-1.5×10^6 cells/ml. Bacterial growth was determined by the increase of optical density at 600 nm using a microplate reader (Tecan SpectraFluor Plus).

Staphylococcus aureus = test: as above; assay type: cell-based; settings: Staphylococcus aureus, read-out: MIC
How it was run: as §1

E. coli/TEM-1 = test: as above; assay type: cell-based, Escherichia coli; settings: Escherichia coli
How it was run: as §1

E. coli N = test: as above; assay type: cell-based, Escherichia coli; settings: Escherichia coli; E. coli (N); read-out: MIC
How it was run: as §1

E. aerogenes = test: as above; assay type: cell-based, Enterobacter aerogenes; settings: Klebsiella aerogenes, ATCC35028; E. aerogenes ATCC 35028; read-out: MIC
How it was run: as §1

[1] = tested on: TEM-52, an antibiotic-resitant E. coli; settings: TEM-52 versus wild-type; Fletcher (2001); cited from earlier work

Structure (SMILES)	MIC (E. faecalis; ATCC49757, E. faecalis ATCC 49757) [µg/mL]	MIC (E. faecalis; ATCC700802, E. faecalis ATCC 700802) [µg/mL]	MIC (E. cloacae) [µg/mL]	MIC (K. pneumoniae; ATCC51503, K. pneumoniae ATCC 51503) [µg/mL]	MIC (K. pneumoniae; ATCC700721, K. pneumoniae ATCC 700721) [µg/mL]	melting point [°C]	MIC (P. aeruginosa; ATCC21726, P. aeruginosa ATCC 21726) [µg/mL]	MIC (P. aeruginosa; ATCC29872, P. aeruginosa ATCC 29872) [µg/mL]	MIC (Staphylococcus aureus; ATCC11632, S. aureus ATCC 11632) [µg/mL]	MIC (Staphylococcus aureus; ATCC33594, S. aureus ATCC 33594) [µg/mL]	MIC (Staphylococcus aureus; ATCC700260, S. aureus ATCC 700260) [µg/mL]	MIC (Staphylococcus aureus; ATCC700699, S. aureus ATCC 700699) [µg/mL]	MIC (E. coli/TEM-1) [µg/mL]	MIC (E. coli N) [µg/mL]	MIC (E. aerogenes) [µg/mL]	fold more resistant than wild-type E coli [1]
O=C(Cn1cnnn1)NC1C(=O)N2C(C(=O)O)=C(COc3cc(Cl)ccc3Oc3ccc(Cl)cc3Cl)CS[C@H]12 (stereo partly shown) [Compound 29, 3-(2-(2,4-Dichlorophenoxy)-5-chlorophenoxy)methyl-7-(1-tetrazoleacetamido)-3-cephem-4-carboxylic acid]	8 (≈ 13.1 µM)	16 (≈ 26.2 µM)	1 (≈ 1.63 µM)	8 (≈ 13.1 µM)	1 (≈ 1.63 µM)	112	> 32	> 32	0.063 (≈ 0.103 µM)	0.063 (≈ 0.103 µM)	0.063 (≈ 0.103 µM)	0.125 (≈ 0.204 µM)	0.063 (≈ 0.103 µM)	2 (≈ 3.27 µM)	32 (≈ 52.3 µM)	
CO/N=C(\C(=O)N[C@@H]1C(=O)N2C(C(=O)O)=C(COC(C)=O)CS[C@H]12)c1csc(N)n1 [cefotaxime]																more than 500 fold
